Measurements taken from patent US20230365592A1 (Agios Pharmaceuticals, Inc., priority 2022, published 2023).

These compounds were tested against T1, human PAH with the R408W mutation (Homo sapiens, UniProt P00439, R408W) (assay: Cell Based Phenylalanine Flux Assay). Settings: A375 cells expressing R408W PAH; 24 hrs with compound, then 20 µM sepiapterin and 800 µM 13C9,15N-Phenylalanine for 4 hours; 13C-Tyrosine by LC-MS; average where tested multiple times; read-out: AC50.
T1 construct: expressed in transfected cells
T1 sequence (P00439 1-452 R408W): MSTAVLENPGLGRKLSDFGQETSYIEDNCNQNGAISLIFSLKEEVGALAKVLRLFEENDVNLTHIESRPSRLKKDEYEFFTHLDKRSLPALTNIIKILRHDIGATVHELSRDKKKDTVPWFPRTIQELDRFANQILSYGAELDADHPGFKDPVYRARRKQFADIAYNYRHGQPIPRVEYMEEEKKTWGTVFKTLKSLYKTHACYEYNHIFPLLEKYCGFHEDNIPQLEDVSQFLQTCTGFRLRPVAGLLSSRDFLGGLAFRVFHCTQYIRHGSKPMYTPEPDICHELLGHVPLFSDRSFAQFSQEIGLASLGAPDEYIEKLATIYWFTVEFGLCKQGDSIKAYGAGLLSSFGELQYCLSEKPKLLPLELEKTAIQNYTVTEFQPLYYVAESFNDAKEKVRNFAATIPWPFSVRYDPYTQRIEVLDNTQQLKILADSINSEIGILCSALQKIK
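Note: after compound treatment, cells received sepiapterin plus isotope-labelled Phenylalanine for 4 hours, then labelled Tyrosine in the medium was quantified, 10-point 2-fold dilution series run in duplicate.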

**Q.** `Cc1cccc2cc([C@H]3c4nc[nH]c4CCN3C(=O)c3cnn4cc(C5CC5)ccc34)nn12` (single isomer, unassigned) was tested. Which AC50 did it give?
**A.** The AC50 was > 5000 nM.

**Q.** With `COc1ccc2c(C(=O)N3CCc4[nH]cnc4C3c3cc4c(OC)cccn4n3)cnn2c1` (centres unmarked) as the compound, how does the AC50 read?
**A.** Its AC50 is 1000 to 5000 nM.

**Q.** `Cc1ccc2c(C(=O)N3CCc4[nH]cnc4C3c3cc4cccc(Cl)n4n3)cnn2c1` (centres unmarked) was tested. Which AC50 did it give?
**A.** Its AC50 is > 5000 nM.

**Q.** Which AC50 does the source give for `Cn1cnc(-c2nnc(C(=O)N3CCc4[nH]cnc4[C@H]3c3cc4cccc(C(F)F)n4n3)o2)c1` (single isomer, unassigned) here?
**A.** The AC50 was 1000 to 5000 nM.

**Q.** For `Fc1cccnc1-c1nnc(N2CCc3[nH]cnc3C2c2cc3c(C(F)F)cccn3n2)o1` (centres unmarked), which AC50 is on record?
**A.** Its AC50 is 1000 to 5000 nM.

**Q.** With `O=C(c1cnc(-c2cnccn2)o1)N1CCc2[nH]cnc2C1c1cc2ccccn2n1` (centres unmarked) as the compound, how does the AC50 read?
**A.** The AC50 was > 5000 nM.

**Q.** `CC1(c2nnc(-n3cnc4c3[C@@H](c3cc5ccccn5n3)NCC4)o2)CC1` (single isomer, unassigned) was tested. Which AC50 did it give?
**A.** The AC50 was 1000 to 5000 nM.

**Q.** For `Cc1cccc2cc(C3c4nc[nH]c4CCN3C(=O)c3nc(C4CC4)nn3C)nn12` (centres unmarked), which AC50 is on record?
**A.** The AC50 was 1000 to 5000 nM.

**Q.** How did the AC50 turn out when `O=C(c1nnc(N2CCOCC2)o1)N1CCc2[nH]cnc2C1c1cc2c(F)cccn2n1` (centres unmarked) was run?
**A.** Its AC50 is 1000 to 5000 nM.

**Q.** For `Cc1ccn2nc(C3c4nc[nH]c4CCN3C(=O)c3nnc(C4CC4)o3)cc2c1` (centres unmarked), which AC50 is on record?
**A.** Its AC50 is 1000 to 5000 nM.

Same assay, conditions: A375 cells expressing human PAH R408W; 24 hrs compound incubation; 13C-Tyrosine by LC-MS; average where tested multiple times; read-out: AC50

**Q.** With `c1cc(C2CC2)c2cc([C@@H]3c4nc[nH]c4CCN3c3nnc(C4CC4)o3)nn2c1` [Example 2059, (S)-2-cyclopropyl-5-(4-(4-cyclopropylpyrazolo[1,5-a]pyridin-2-yl)-1,4,6,7-tetrahydro-5H-imidazo[4,5-c]pyridin-5-yl)-1,3,4-oxadiazole] as the compound, how does the AC50 read?
**A.** The AC50 was 500 to 1000 nM.

**Q.** How did the AC50 turn out when `Cn1cc(-c2ncc(C(=O)N3CCc4[nH]cnc4[C@H]3c3cc4c(C(F)(F)F)cccn4n3)o2)cn1` [Example 2506, (S)-(2-(1-methyl-1H-pyrazol-4-yl)oxazol-5-yl)(4-(4-(trifluoromethyl)pyrazolo[1,5-a]pyridin-2-yl)-1,4,6,7-tetrahydro-5H-imidazo[4,5-c]pyridin-5-yl)methanone] was run?
**A.** The AC50 was 1000 to 5000 nM.

**Q.** With `Cn1cc(-c2nnc(C(=O)N3CCc4[nH]cnc4[C@H]3c3cc4c(C5CC5)cccn4n3)o2)cn1` [Example 1876, (S)-(4-(4-cyclopropylpyrazolo[1,5-a]pyridin-2-yl)-1,4,6,7-tetrahydro-5H-imidazo[4,5-c]pyridin-5-yl)(5-(1-methyl-1H-pyrazol-4-yl)-1,3,4-oxadiazol-2-yl)methanone] as the compound, how does the AC50 read?
**A.** The AC50 was 500 to 1000 nM.

**Q.** With `Cc1cccc2cc([C@H]3c4nc[nH]c4CCN3c3nnc(-c4ccc(F)cc4)o3)nn12` [Example 2011, (R)-2-(4-fluorophenyl)-5-(4-(7-methylpyrazolo[1,5-a]pyridin-2-yl)-1,4,6,7-tetrahydro-5H-imidazo[4,5-c]pyridin-5-yl)-1,3,4-oxadiazole] as the compound, how does the AC50 read?
**A.** Its AC50 is > 5000 nM.

**Q.** With `Cc1ccc2cc([C@@H]3c4nc[nH]c4CCN3C(=O)c3nc(C(F)F)nn3C)nn2c1` [Example 2403, (S)-(3-(difluoromethyl)-1-methyl-1H-1,2,4-triazol-5-yl)(4-(6-methylpyrazolo[1,5-a]pyridin-2-yl)-6,7-dihydro-1H-imidazo[4,5-c]pyridin-5(4H)-yl)methanone] as the compound, how does the AC50 read?
**A.** The AC50 was 1000 to 5000 nM.

**Q.** How did the AC50 turn out when `Cc1cccnc1-c1nnc(N2CCc3[nH]cnc3[C@H]2c2cc3cccc(C(F)(F)F)n3n2)o1` [Example 2336, (S)-2-(3-methylpyridin-2-yl)-5-(4-(7-(trifluoromethyl)pyrazolo[1,5-a]pyridin-2-yl)-1,4,6,7-tetrahydro-5H-imidazo[4,5-c]pyridin-5-yl)-1,3,4-oxadiazole] was run?
**A.** Its AC50 is 500 to 1000 nM.

**Q.** `Cc1ncccc1-c1nnc(N2CCc3[nH]cnc3[C@@H]2c2cc3c(C)cccn3n2)o1` [Example 2207, (R)-2-(4-(4-methylpyrazolo[1,5-a]pyridin-2-yl)-1,4,6,7-tetrahydro-5H-imidazo[4,5-c]pyridin-5-yl)-5-(2-methylpyridin-3-yl)-1,3,4-oxadiazole] was tested. Which AC50 did it give?
**A.** Its AC50 is > 5000 nM.

Same assay, conditions: A375 cells expressing human R408W PAH; 24 hrs compound incubation; 13C-Tyrosine by LC-MS; average where tested multiple times; read-out: AC50

**Q.** For `O=C(c1nnc(-c2cnn(C(F)F)c2)o1)N1CCc2[nH]cnc2[C@H]1c1cc2c(C(F)F)cccn2n1` [Example 1374, (S)-(5-(1-(difluoromethyl)-1H-pyrazol-4-yl)-1,3,4-oxadiazol-2-yl)(4-(4-(difluoromethyl)pyrazolo[1,5-a]pyridin-2-yl)-6,7-dihydro-1H-imidazo[4,5-c]pyridin-5(4H)-yl)methanone], which AC50 is on record?
**A.** The AC50 was < 500 nM.

**Q.** `FC(F)(F)c1cnc(N2CCc3[nH]cnc3[C@@H]2c2cc3c(C(F)(F)F)cccn3n2)nc1` [Example 1775, (R)-4-(4-(trifluoromethyl)pyrazolo[1,5-a]pyridin-2-yl)-5-(5-(trifluoromethyl)pyrimidin-2-yl)-4,5,6,7-tetrahydro-1H-imidazo[4,5-c]pyridine] was tested. Which AC50 did it give?
**A.** The AC50 was > 5000 nM.

**Q.** With `O=C(c1nnc(C2CC2)o1)N1CCc2[nH]cnc2[C@H]1c1cc2c(C(F)(F)F)cccn2n1` [Example 942, (S)-(5-cyclopropyl-1,3,4-oxadiazol-2-yl)(4-(4-(trifluoromethyl)pyrazolo[1,5-a]pyridin-2-yl)-6,7-dihydro-1H-imidazo[4,5-c]pyridin-5(4H)-yl)methanone] as the compound, how does the AC50 read?
**A.** Its AC50 is < 500 nM.

**Q.** For `Cn1ccc(-c2ccc3c(C(=O)N4CCc5[nH]cnc5[C@H]4c4cc5c(C(F)(F)F)cccn5n4)cnn3c2)n1` [Example 1596, (S)-(6-(1-methyl-1H-pyrazol-3-yl)pyrazolo[1,5-a]pyridin-3-yl)(4-(4-(trifluoromethyl)pyrazolo[1,5-a]pyridin-2-yl)-6,7-dihydro-1H-imidazo[4,5-c]pyridin-5(4H)-yl)methanone], which AC50 is on record?
**A.** The AC50 was < 500 nM.

**Q.** How did the AC50 turn out when `O=C(c1nnc(-c2cnn(C(F)(F)F)c2)o1)N1CCc2[nH]cnc2[C@@H]1c1cc2c(C(F)F)cccn2n1` [Example 1571, (R)-(4-(4-(difluoromethyl)pyrazolo[1,5-a]pyridin-2-yl)-6,7-dihydro-1H-imidazo[4,5-c]pyridin-5(4H)-yl)(5-(1-(trifluoromethyl)-1H-pyrazol-4-yl)-1,3,4-oxadiazol-2-yl)methanone] was run?
**A.** Its AC50 is 1000 to 5000 nM.

**Q.** `O=C(c1nnc(C2CC(F)(F)C2)o1)N1CCc2[nH]cnc2[C@H]1c1cc2c(F)cccn2n1` [Example 1604, (S)-(5-(3,3-difluorocyclobutyl)-1,3,4-oxadiazol-2-yl)(4-(4-fluoropyrazolo[1,5-a)pyridin-2-yl)-6,7-dihydro-1H-imidazo[4,5-c]pyridin-5(4H)-yl)methanone] was tested. Which AC50 did it give?
**A.** The AC50 was 500 to 1000 nM.

**Q.** For `Cc1nnc(C(=O)N2CCc3[nH]cnc3[C@H]2c2cc3c(C(F)(F)F)cccn3n2)o1` [Example 944, (S)-(5-methyl-1,3,4-oxadiazol-2-yl)(4-(4-(trifluoromethyl)pyrazolo[1,5-a]pyridin-2-yl)-6,7-dihydro-1H-imidazo[4,5-c]pyridin-5(4H)-yl)methanone], which AC50 is on record?
**A.** The AC50 was 500 to 1000 nM.

**Q.** `Cc1cccc2cc([C@@H]3c4nc[nH]c4CCN3C(=O)c3ocnc3C(F)F)nn12` [Example 792, (S)-(4-(difluoromethyl)oxazol-5-yl)(4-(7-methylpyrazolo[1,5-a]pyridin-2-yl)-6,7-dihydro-1H-imidazo[4,5-c]pyridin-5(4H)-yl)methanone] was tested. Which AC50 did it give?
**A.** Its AC50 is < 500 nM.

**Q.** For `Cc1cc(C(=O)N2CCc3[nH]cnc3[C@@H]2c2cc3c(C)cccn3n2)n(C)n1` [Example 901, (R)-(1,3-dimethyl-1H-pyrazol-5-yl)(4-(4-methylpyrazolo[1,5-a]pyridin-2-yl)-6,7-dihydro-1H-imidazo[4,5-c]pyridin-5(4H)-yl)methanone], which AC50 is on record?
**A.** Its AC50 is > 5000 nM.

**Q.** For `O=C(c1nnc(C2CC2)o1)N1CCc2[nH]cnc2[C@@H]1c1cc2c(Cl)cccn2n1` [Example 1095, (R)-(4-(4-chloropyrazolo[1,5-a]pyridin-2-yl)-6,7-dihydro-1H-imidazo[4,5-c]pyridin-5(4H)-yl)(5-cyclopropyl-1,3,4-oxadiazol-2-yl)methanone], which AC50 is on record?
**A.** The AC50 was > 5000 nM.

**Q.** How did the AC50 turn out when `FC(F)c1nnc(N2CCc3[nH]cnc3[C@H]2c2cc3c(C(F)F)cccn3n2)o1` [Example 1733, (S)-2-(difluoromethyl)-5-(4-(4-(difluoromethyl)pyrazolo[1,5-a]pyridin-2-yl)-6,7-dihydro-1H-imidazo[4,5-c]pyridin-5(4H)-yl)-1,3,4-oxadiazole] was run?
**A.** The AC50 was < 500 nM.

**Q.** How did the AC50 turn out when `O=C(c1nnc(-c2ncccc2F)o1)N1CCc2[nH]cnc2[C@H]1c1cc2c(OC(F)F)cccn2n1` [Example 1657, (S)-(4-(4-(difluoromethoxy)pyrazolo[1,5-a]pyridin-2-yl)-6,7-dihydro-1H-imidazo[4,5-c]pyridin-5(4H)-yl)(5-(3-fluoropyridin-2-yl)-1,3,4-oxadiazol-2-yl)methanone] was run?
**A.** Its AC50 is 500 to 1000 nM.

**Q.** With `CC(C)(O)c1nc(Cl)c(C(=O)N2CCc3[nH]cnc3[C@@H]2c2cc3c(F)cccn3n2)o1` [Example 757, (R)-(4-chloro-2-(2-hydroxypropan-2-yl)oxazol-5-yl)(4-(4-fluoropyrazolo[1,5-a]pyridin-2-yl)-6,7-dihydro-1H-imidazo[4,5-c]pyridin-5(4H)-yl)methanone] as the compound, how does the AC50 read?
**A.** Its AC50 is 1000 to 5000 nM.

**Q.** For `Cc1c([C@@H]2c3nc[nH]c3CCN2C(=O)c2oc(C(C)(C)O)nc2C(F)F)nn2ccccc12` [Example 786, (S)-(4-(difluoromethyl)-2-(2-hydroxypropan-2-yl)oxazol-5-yl)(4-(3-methylpyrazolo[1,5-a]pyridin-2-yl)-6,7-dihydro-1H-imidazo[4,5-c]pyridin-5(4H)-yl)methanone], which AC50 is on record?
**A.** Its AC50 is < 500 nM.

**Q.** Which AC50 does the source give for `O=C(c1ocnc1C(F)(F)F)N1CCc2[nH]cnc2[C@H]1c1cc2c(F)cccn2n1` [Example 772, (S)-(4-(4-fluoropyrazolo[1,5-a]pyridin-2-yl)-6,7-dihydro-1H-imidazo[4,5-c]pyridin-5(4H)-yl)(4-(trifluoromethyl)oxazol-5-yl)methanone] here?
**A.** The AC50 was < 500 nM.
